# Measured values published in US12435083B2, “Cyclopropyl-(hetero)aryl-substituted ethylsulphonyl-pyridine derivatives” (BOEHRINGER INGELHEIM VETMEDICA GMBH, priority 2021, dated 2025).
# Assays:
# [1] = system: adult Rhipicephalus sanguineus ticks; assay: Contact activity against adult Rhipicephalus sanguineus (coated vial, mortality at 48 h); details: contact assay; >100 μM = not active at the top concentration; read-out: R. sanguineus contact activity EC50
# Summary of the method: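 Compound in acetone/0.02% Triton X-100 coated onto glass vial walls and cap filter paper; after drying, ten adult ticks added per vial. Held at 24° C, 95% relative humidity, 12 h light/dark cycle. Mortality scored visually at 48 hours; EC50 derived from a dose-response series.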
# [2] = system: adult Ctenocephalides felis fleas; assay: Ingestion activity (flea membrane feeding, blood feeding) against adult Ctenocephalides felis; details: flea membrane feeding (ingestion, blood feeding) assay, EC80
# [3] = system: nymphs of Dermacentor variabilis ticks; assay: Oral rat-tick efficacy against nymphs of Dermacentor variabilis ticks; format: in vivo; details: rats, oral gavage 10 mg/kg on Day 0, tick count on Day 3
# Protocol: Example 10: Comparison of Oral Rat-Tick Efficacy Data for Selected Specific Compounds of Formula (I) Against Nymphs of Dermacentor variabilis Ticks
# On Day −1, rats were sedated, fitted with an Elizabethan collar, and infested with approximately 35 nymphal stage D. variabilis ticks. On Day 0, each rat was treated via oral gavage with the appropriate formulation of placebo, positive control, or test compound at the appropriate dose. On Day 3, all rats were euthanized, and ticks were removed, counted, and disposed of. In Table 2 efficacy is expressed in % mortality compared to negative controls containing compound vehicle only.
Structure (SMILES),EC50 [1],EC80 ([2]; read-out: C. felis membrane feeding (ingestion/blood feeding) activity EC80),Observed efficacy (% mortality compared to negative controls) [3],C. felis membrane feeding (ingestion/blood feeding) activity EC80 [2]
CCS(=O)(=O)c1cc(-c2ccc(C3(F)CC3)cc2)cnc1-c1nc2cc(C(F)(F)C(F)(F)F)nnc2n1C [compound 19],10 to 100 µM,<1 µM,>95%,
CCS(=O)(=O)c1cc(-c2ccc(C3CC3)cc2)cnc1-c1nc2cc(C(F)(F)C(F)(F)F)cnc2n1C [compound 44],10 to 100 µM,,>95%,1 to 10 µM
